Reference: US8962660B2 (Bristol-Myers Squibb Company, priority 2013, dated 2015)

The molecules below were run against T1, human GPR120 (Homo sapiens, UniProt Q5NUL3) (assay: GPR120 pERK AlphaScreen SureFire assay (human)). Settings: CHO cells stably transfected with short form of human GPR120.
T1 construct: expressed in transfected cells; host or cells: CHOA12 cells
T1 sequence (Q5NUL3 1-361): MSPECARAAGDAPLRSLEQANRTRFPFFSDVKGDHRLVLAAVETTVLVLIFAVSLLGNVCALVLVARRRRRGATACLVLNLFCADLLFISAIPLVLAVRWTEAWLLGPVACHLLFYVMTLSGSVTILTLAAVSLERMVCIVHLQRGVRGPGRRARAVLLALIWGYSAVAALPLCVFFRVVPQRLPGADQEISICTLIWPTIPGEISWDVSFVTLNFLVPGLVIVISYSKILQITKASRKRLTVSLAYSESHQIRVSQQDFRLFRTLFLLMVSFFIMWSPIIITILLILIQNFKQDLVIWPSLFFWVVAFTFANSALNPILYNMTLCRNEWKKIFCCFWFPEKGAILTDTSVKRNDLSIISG
Type: cell-based
From the text: GPR120 activity was monitored by measuring phosphorylation of ERK (pERK), since G protein receptors are known to activate the ERK signaling cascade either directly and/or through recruitment of arrestin that serves as a scaffold for downstream signaling events.
GPR120 pERK AlphaScreen SureFire Assay
The human and mouse GPR120-mediated intracellular phosphorylated ERK assays were established using CHOA12 cells stably transfected with the short form of human or mouse GPR120 receptor. Cells were cultured in growth medium consisting of F-12 media (Invitrogen Cat. #11765) with 5% Charcoal/Dextran FBS (Invitrogen Cat. #12676-029), 500 μg/mL GENETICIN® (Life Technologies Cat. #10131-027) and 250 μg/mL Zeocin (Invitrogen Cat. #R250-01). Cells were cryo preserved at a concentration of 2×10^7 cells/mL, in 90% Charcoal/Dextran FBS and 10% DMSO, and frozen in liquid nitrogen at a low passage number.
For the pERK assay, 2×10^7 cells/mL cryopreserved human and mouse cells were thawed rapidly in a 37° C. water bath and added to a T-225 flask containing 50 mL growth medium. The flasks were placed in a tissue culture incubator overnight (37° C., 5% CO2). The next day, cells were harvested with trypsin (Gibco Cat. #25300-054), resuspended in serum-containing growth medium and counted using a Cellometer and volume adjusted to a concentration of 0.6×10^6cells/mL. Cells were plated into 384-well clear bottom tissue culture plates (BD Cat. #353962) at 50 μL/well, for a density of 30,000 cells/well using a MULTIDROP® and incubated for 16-18 hours (overnight) at 37° C. with 5% CO2. The next day, cells were serum starved in 30 μL of F-12 media without any serum or antibiotics for 2 hours at 37° C.
Test compounds were 3-fold, 11-point serially diluted in DMSO in a REMP assay plate (Matrix Cat. #4307) by Tecan and 5 μL was transferred into an ECHO source plate (LABCYTE® Cat. #LC-0200). Cells were then stimulated with 50 nL of compound dilutions using ECHO liquid handler for 7 minutes at 37° C. Compounds ranged from final assay concentrations of 33.33 μM to 0.56 nM.
The media was then dumped and cells lysed with 20 μL of 1× Lysis buffer from the AlphaScreen SureFire Phospho-ERK 1/2 Kit (Perkin Elmer Cat. #6760617M). The lysis buffer was diluted 5-fold with water before use. The plate was agitated on a shaker for 10 minutes after which 2 μL was transferred into a 384-well white proxiplate (Perkin Elmer Cat. #6008289). The SureFire assay reagent mix was prepared by mixing 60 parts Reaction Buffer, 10 parts Activation Buffer, 1 part Donor Beads, 1 part Acceptor Beads (Perkin Elmer Cat. #TGRES10K). 3.5 μL/well of this reagent mix was manually added to the proxiplate with a multichannel pipettor. Plates were spun down at 1000 rpm for 2 minutes, followed by light-protected incubation at room temperature for 2 hours. The plates were read on the Alpha-technology compatible Envision multilabel plate reader using AlphaScreen protocol according to manufacturer's specifications. The agonist effect of compounds was expressed as 100×(average sample−average blank)/(average total−average blank) where sample is the luminescence activity in the presence of test compound, blank is equal to the luminescence activity in the presence of DMSO control and the total is signal induced by 50 μM linolenic acid as reference compound. Activation data for the test compound over a range of concentrations was plotted as percentage activation of the test compound (100%=maximum response). After correcting for background, EC50 values were determined The EC50 is defined as the concentration of test compound which produces 50% of the maximal response and was quantified using the 4 parameter logistic equation to fit the data.
The human and mouse GPR120-mediated intracellular phosphorylated ERK assays were also established using CHO-K1 cells stably transfected with the short form of human or mouse GPR120 receptor. […]

Row | Structure (SMILES) | EC50 [nM]
1 | O=C(O)[C@@H]1C[C@@H]1CCC12CCC(c3cccc(Oc4ccccc4)c3)(CC1)OC2 (racemic) [Example 32, Cis-2-(2-(1-(3-phenoxyphenyl)-2-oxabicyclo[2.2.2]octan-4-yl)ethyl)cyclopropanecarboxylic acid] | 580
2 | CCCC(C)Oc1cccc(C23CCC(CCOCC(=O)O)(CC2)CO3)c1 (racemic) [Example 53, 2-(2-(1-(3-(Pentan-2-yloxy)phenyl)-2-oxabicyclo[2.2.2]octan-4-yl)ethoxy)acetic acid] | 1030
3 | O=C(O)[C@@H]1C[C@H]1CCC12CCC(c3cccc(Oc4ccccc4)c3)(CC1)OC2 (single isomer, unassigned) [Example 15] | 480
4 | OC[C@H](O)CCCC12CCC(c3cccc(Oc4ccccc4)c3)(CC1)OC2 (single isomer, unassigned) [Example 60, R-5-(1-(3-phenoxyphenyl)-2-oxabicyclo[2.2.2]octan-4-yl)pentane-1,2-diol] | 570
5 | O=C(NCc1ncn[nH]1)[C@@H]1C[C@H]1CCC12CCC(c3cccc(Oc4ccccc4)c3)(CC1)OC2 (single isomer, unassigned) [Example 62, N-((1H-1,2,4-Triazol-5-yl)methyl)-2-(2-(1-(3-phenoxyphenyl)-2-oxabicyclo[2.2.2]octan-4-yl)ethyl) cyclopropanecarboxamide] | 1220
6 | CC(C)COc1cccc(C23CCC(CC[C@@H]4C[C@H]4C(=O)O)(CC2)CO3)c1 (single isomer, unassigned) [Example 66, 2-(2-(1-(3-Isobutoxyphenyl)-2-oxabicyclo[2.2.2]octan-4-yl)ethyl)cyclopropanecarboxylic acid] | 2080
7 | COc1cccc(Oc2cccc(C34CCC(CC[C@@H]5C[C@H]5C(=O)O)(CC3)CO4)c2)c1 (single isomer, unassigned) [Example 67, 2-(2-(1-(3-(3-Methoxyphenoxy)phenyl)-2-oxabicyclo[2.2.2]octan-4-yl)ethyl)cyclopropanecarboxylic acid] | 750
8 | O=C(NCc1ncn[nH]1)[C@H]1C[C@@H]1CCC12CCC(c3cccc(Oc4ccccc4)c3)(CC1)OC2 (single isomer, unassigned) [Example 68, N-((1H-1,2,4-Triazol-5-yl)methyl)-2-(2-(1-(3-phenoxyphenyl)-2-oxabicyclo[2.2.2]octan-4-yl)ethyl)cyclopropanecarboxamide] | 720
9 | CCNC(=O)[C@@H]1C[C@H]1CCC12CCC(c3cccc(Oc4ccccc4)c3)(CC1)OC2 (single isomer, unassigned) [Example 69, N-Ethyl-2-(2-(1-(3-phenoxyphenyl)-2-oxabicyclo[2.2.2]octan-4-yl)ethyl) cyclopropanecarboxamide] | 4230
10 | O=C(O)[C@@H]1C[C@H]1CCC12CCC(c3cccc(Oc4cccc(O)c4)c3)(CC1)OC2 (single isomer, unassigned) [Example 70, 2-(2-(1-(3-(3-Hydroxyphenoxy)phenyl)-2-oxabicyclo[2.2.2]octan-4-yl)ethyl) cyclopropanecarboxylic acid] | 970
11 | O=C(O)[C@@H]1C[C@H]1COCC12CCC(c3cccc(Oc4ccccc4)c3)(CC1)OC2 (single isomer, unassigned) [Example 98] | 1020
12 | O=C(O)CCC12CCC(c3cccc(Oc4ccccc4)c3)(CC1)OC2 [Example 1, 3-(1-(3-Phenoxyphenyl)-2-oxabicyclo[2.2.2]octan-4-yl)propanoic acid] | 2310
13 | Cc1nc(-c2ccccc2)c(C23CCC(CCCCC(=O)O)(CC2)CO3)s1 [Example 4, 5-(1-(2-Methyl-4-phenylthiazol-5-yl)-2-oxabicyclo[2.2.2]octan-4-yl)pentanoic acid] | 1600
14 | CC(C)Oc1cccc(C23CCC(CCOCC(=O)O)(CC2)CO3)c1 [Example 7, 2-(2-(1-(3-Isopropoxyphenyl)-2-oxabicyclo[2.2.2]octan-4-yl)ethoxy)acetic acid] | 7540
15 | O=C(O)COCCC12CCC(c3cccc(OC4CCCCC4)c3)(CC1)OC2 [Example 8, 2-(2-(1-(3-(Cyclohexyloxy)phenyl)-2-oxabicyclo[2.2.2]octan-4-yl)ethoxy)acetic acid] | 1050

The next molecules have a lower EC50 than those just listed; values first:

Row | EC50 [nM] | Structure (SMILES)
16 | 350 | O=C(O)C1CC1CCC12CCC(c3cccc(Oc4ccccc4)c3)(CC1)OC2 (racemic) [Example 13, trans-2-(2-(1-(3-Phenoxyphenyl)-2-oxabicyclo[2.2.2]octan-4-yl)ethyl)cyclopropanecarboxylic acid]
17 | 290 | OCC(O)CCCC12CCC(c3cccc(Oc4ccccc4)c3)(CC1)OC2 (racemic) [Example 58, 5-(1-(3-Phenoxyphenyl)-2-oxabicyclo[2.2.2]octan-4-yl)pentane-1,2-diol]
18 | 260 | O=C(O)C[C@H]1C[C@@H]1CC12CCC(c3cccc(Oc4ccccc4)c3)(CC1)OC2 (single isomer, unassigned) [Example 17]
19 | 410 | O=C(O)C[C@@H]1C[C@H]1CC12CCC(c3cccc(Oc4ccccc4)c3)(CC1)OC2 (single isomer, unassigned) [Example 18]
20 | 360 | OCC(O)CCCC12CCC(c3cccc(Oc4ccccc4)c3)(CC1)OC2 (single isomer, unassigned) [Example 59, S-5-(1-(3-Phenoxyphenyl)-2-oxabicyclo[2.2.2]octan-4-yl)pentane-1,2-diol]
21 | 370 | O=C(O)C1CC1CCC12CCC(c3cc(F)cc(Oc4ccccc4)c3)(CC1)OC2 (single isomer, unassigned) [Example 63, 2-(2-(1-(3-Fluoro-5-phenoxyphenyl)-2-oxabicyclo[2.2.2]octan-4-yl)ethyl)cyclopropanecarboxylic acid]
22 | 260 | O=C(O)[C@@H]1C[C@H]1CCC12CCC(c3cc(F)cc(Oc4cccc(F)c4)c3)(CC1)OC2 (single isomer, unassigned) [Example 64, 2-(2-(1-(3-Fluoro-5-(3-fluorophenoxy)phenyl)-2-oxabicyclo[2.2.2]octan-4-yl)ethyl) cyclopropanecarboxylic acid]
23 | 330 | O=C(O)[C@@H]1C[C@H]1CCC12CCC(c3cccc(Oc4cccc(F)c4)c3)(CC1)OC2 (single isomer, unassigned) [Example 65, 2-(2-(1-(3-(3-Fluorophenoxy)phenyl)-2-oxabicyclo[2.2.2]octan-4 yl)ethyl)cyclopropane carboxylic acid]
24 | 340 | O=C(O)[C@H]1C[C@@H]1COCC12CCC(c3cccc(Oc4ccccc4)c3)(CC1)OC2 (single isomer, unassigned) [Example 99]
25 | 60 | O=C(O)CCCCC12CCC(c3cccc(Oc4ccccc4)c3)(CC1)OC2 [Example 2]
26 | 200 | COc1cccc(C23CCC(CCCCC(=O)O)(CC2)CO3)c1 [Example 3, 5-(1-(3-Methoxyphenyl)-2-oxabicyclo[2.2.2]octan-4-yl)pentanoic acid]
27 | 80 | O=C(O)CCOCC12CCC(c3cccc(Oc4ccccc4)c3)(CC1)OC2 [Example 5, 3-((1-(3-Phenoxyphenyl)-2-oxabicyclo[2.2.2]octan-4-yl)methoxy)propanoic acid]
